# Data published in US4435591A, “Compound with analgesic, antiinflammatory and antipyretic activity, and pharmaceutical compositions therefrom” (Ausonia Farmaceutici s.r.l., priority 1982, dated 1984).
# Values joined by “and” are separate entries in the source; they are usually repeats but may differ in a detail not shown here. Identical values can stand only once. Like-named read-outs stand apart in the source and are kept apart here.
# What was measured:
# [1] = Organ to plasma ratio of ibuprofen concentrations in rats; type: in vivo; conditions: vs administration of ibuprofen
# Protocol: (§1) AFP 802 has been administered orally in the dose of 200 mg/kg in rats. […] The animals are killed in groups of four after the following time periods; 15 minutes, 30 minutes, 1 hour, 2 hours, 4 hours, 6 hours and 24 hours.
# in vivo [2] = conditions: rat, rats, read-out: DL50 (limit of error 95%)
# gastric mucosa = system: gastric mucosa; parameters: species or system rats; conditions: rat, in vivo, po
# [3] = Pharmacokinetics, plasma levels after oral administration in rats; type: in vivo
# Protocol: as §1
# [4] = system: Hyperthermia caused by yeast; assay: Antipyretic activity, hyperthermia caused by yeast in rats (Boissier and Simon); type: in vivo
# Source text: The experiment has been carried out in rats in which the body temperature has been increased by means of yeast by the method according to J. R. Boissier and P. Simon (Therapie, 1962, 17, 1225). […] It is, however, necessary to keep in mind the difference in molecular weight between the two substances under examination.
# [5] = system: Test of Randall and Selitto, in rats; assay: Test of Randall and Selitto in rats; type: in vivo
# Protocol: The analgesic activity of AFP 802 has been studied by means of the writhing test with phenylquinone in mice and by means of the test of Randall and Selitto in rats. Test of Randall and Selitto in rats. This test was carried out according to the method of L. Randall and J. Selitto reported in Arch. Int. Pharmacodyn., 1957 III, 409. […] The variations of pressure tolerated without variation in pain have been determined each hour, for 5 consecutive hours and the results are reported in Table 10.
# [6] = system: Edema caused by kaolin in rats; assay: Edema caused by kaolin in rats (Coulon et al); conditions: 5 consecutive days
# [7] = system: subplantar edema caused by carrageenan in rats; assay: Edema caused by carrageenan in rats (Winter et al); type: in vivo; conditions: oral, AFP 802 187 mg/Kg, ibuprofen 100 mg/Kg
# Protocol: The anti-inflammatory activity has been investigated by a series of tests using edema caused by carrageenan and kaolin pleuritis caused by carrageenan and arthritis caused by an adjuvant.
# The plyethysmographic observations of the edema have been carried out every hour for a period of 7 hours after the induction of the edema.
# [8] = system: Writhing caused by phenylquinone in mice; assay: Writhing caused by phenylquinone in mice (Siegmung et al); type: in vivo
# Source text: The analgesic activity of AFP 802 has been studied by means of the writhing test with phenylquinone in mice and by means of the test of Randall and Selitto in rats.
# [9] = system: Pleuritis caused by carrageenan in rats; assay: Pleuritis caused by carrageenan in rats (Vinegar et al); type: in vivo; conditions: for Number of leucocytes × 1,000 / Volume of exudate in cc / Number of leucocytes, % inhibition with respect to the controls / Volume of exudate, % inhibition with respect to the controls: 100 mg/Kg oral
# [10] = system: Arthritis caused by the adjuvant of Freund in rats; assay: Arthritis caused by the adjuvant in rats (Winter and Nuss); type: in vivo
# Source text: For the evaluation for the efficiency of the substance the following parameters have been considered: diameter of articulations, volume of the hind paws, hematological and hematochemical examination, weight of the suprarenal glands and thymus.
# in vivo [11] = type: in vivo; conditions: mouse, in vivo, mice, read-out: DL50 (limit of error 95%)
# mice = assay: in vivo; type: in vivo; conditions: mice and rats, particularly by the oral route
# [12] = both paws, area under the curve of the increases, 100 mg/Kg/die oral
compound,measurement,setting,value
"COc1cc(C(=O)OCC(C)c2ccc(CC(C)C)cc2)cc(OC)c1OC (centres unmarked) [AFP 802, 2-(4-isobutylphenyl)1-propanol 3,4,5-trimethoxybenzoate]",ratio of the organ to the plasma for ibuprofen concentrations (in words),[1]; kidney,lower in the case of kidney
same,ratio of the organ to the plasma for ibuprofen concentrations (in words),"[1]; liver, lungs and uterus","higher in the case of liver, lungs and uterus"
same,LD50,"in vivo [2]; ip, intraperitoneal route",193 mg/kg
same,LD50,in vivo [2]; oral route,> 4000 mg/kg
same,effects of gastric lesion (in words),gastric mucosa,almost negligible
same,presence in the blood fluid (in words),[3]; 15 minutes and 30 minutes after oral 200 mg/kg,presence already after a short period of time in the blood fluid
same,area under the curve of the plasma levels of ibuprofen (AUC) (in words),"[3]; AFP 802 200 mg/kg vs ibuprofen 100 mg/kg, oral",substantially similar in the administration of the two substances
same,plasma levels of ibuprofen over time (in words),[3]; ibuprofen after AFP 802 vs ibuprofen in equimolar doses,substantially latent with respect to ibuprofen in equimolar doses
same,time when ibuprofen (active metabolite) begins to appear in the blood (in words),[3]; ibuprofen after oral AFP 802 200 mg/kg,"the first hour which is the time when ibuprofen, which is its active metabolite, begins to appear"
same,bioavailability by the oral route (in words),[3]; oral 200 mg/kg,readily bioavailability by the oral route
same,presence in the blood after the first hour (in words),[3]; oral 200 mg/kg,found in the blood even after the first hour
same,% inhibition with respect to control,[4]; 100 mg/Kg oral,86.12%
same,Rectal temperature,"[4]; 1 hour after treatment, 100 mg/Kg oral",38.22 °C
same,Rectal temperature,"[4]; 2 hours after treatment, 100 mg/Kg oral",37.75 °C
same,Rectal temperature,"[4]; 3 hours after treatment, 100 mg/Kg oral",37.51 °C
same,Rectal temperature,"[4]; 4 hours after treatment, 100 mg/Kg oral",37.16 °C
same,Rectal temperature,"[4]; 5 hours after treatment, 100 mg/Kg oral",37.04 °C
same,Rectal temperature,"[4]; Basal, 100 mg/Kg oral group",38.73 °C
same,antipyretic activity compared with ibuprofen (in words),"[4]; equal dose, oral",only slightly inferior to the activity of an equal dose of ibuprofen
same,duration of action compared with ibuprofen (in words),"[4]; rat, in vivo",longer duration of action
same,"% INHIBITION WITH RESPECT TO THE CONTROL, I","[5]; area, inflamed paw, 100 mg/Kg oral",110.89%
same,"% INHIBITION WITH RESPECT TO THE CONTROL, NI","[5]; area, not inflamed paw, 100 mg/Kg oral",46.93%
same,"AREA ABSOLUTE VALUE, I","[5]; inflamed paw, area of the increase of the pressure tolerated, 100 mg/Kg oral",11.7 ± 22.1
same,activity expressed in percent of inhibition of the area (in words),[5]; limb in which no injections have been made,"fair, lower than the activity of ibuprofen"
same,activity expressed in percent of inhibition of the area (in words),[5]; limbs affected by edema,"high, superior to the activity of ibuprofen"
same,"AREA ABSOLUTE VALUE, NI","[5]; not inflamed paw, area of the increase of the pressure tolerated, 100 mg/Kg oral",-61.20 ± 16.39
same,% inhibition with respect to the controls,"[6]; area, oral every 24 hours, dose AFP 802 115, ibuprofen 60",44.10%
same,inhibition of the inflammation (in words),[6]; equimolar oral doses,inhibits the inflammation to a substantial extent with values which overlap with the values obtained in the case of ibuprofen
same,Area (area under the curve of the increase of the diameter of the articulations),"[6]; oral every 24 hours, dose AFP 802 115, ibuprofen 60",9799.5 mm^2
same,Average volume of the paw,[7]; 0 hours,22.6
same,Average volume of the paw,[7]; 1 hour,27.9
same,Average volume of the paw,[7]; 2 hours,28.6
same,Average volume of the paw,[7]; 3 hours,28.4
same,Average volume of the paw,[7]; 4 hours,28.9
same,Average volume of the paw,[7]; 5 hours,29.6
same,% inhibition vs control,[7]; area,60.4%
same,Area Absolute Value,[7],119.3
same,% inhibition with respect to the control,[8]; 100 mg/Kg oral,78.2%
same,No. of Contorsions,[8]; 100 mg/Kg oral,4.5
same,% inhibition with respect to the control,[8]; 200 mg/Kg oral,89.1%
same,No. of Contorsions,[8]; 200 mg/Kg oral,2.3
same,analgesic activity compared with ibuprofen (in words),"[8]; equal weight, oral",equal activity of the two products
same,"Number of leucocytes × 1,000",[9]; 5 hours,"4,804 × 1,000"
same,Volume of exudate in cc,[9]; 5 hours,0.56 cc
same,"Number of leucocytes, % inhibition with respect to the controls","[9]; 5 hours, 100 mg/kg",71.80% and 72%
same,"Volume of exudate, % inhibition with respect to the controls","[9]; 5 hours, 100 mg/kg",43.43% and 43%
same,effect in pleuritis compared with ibuprofen (in words),"[9]; 5 hours, equal doses by weight",analogous to the values obtained by administration of equal doses by weight of ibuprofen
same,effect in pleuritis (in words),[9]; 24 hours after the administration,practically unchanged
same,"Number of leucocytes × 1,000",[9]; 24 hours,"7,676 × 1,000"
same,"Number of leucocytes, % inhibition with respect to the controls",[9]; 24 hours,58.05%
same,Volume of exudate in cc,[9]; 24 hours,0.47 cc
same,"Volume of exudate, % inhibition with respect to the controls",[9]; 24 hours,48.91%
same,ALBUMIN (%),[10]; 100 mg/Kg/die oral,70.3 ± 0.97%
same,GLOBULIN (%) α1,[10]; 100 mg/Kg/die oral,7.2 ± 0.36%
same,GLOBULIN (%) α2,[10]; 100 mg/Kg/die oral,6.2 ± 0.38%
same,GLOBULIN (%) β1,[10]; 100 mg/Kg/die oral,11.7 ± 0.30%
same,GLOBULIN (%) β2,[10]; 100 mg/Kg/die oral,5.7 ± 0.45%
same,GLOBULIN (%) γ,[10]; 100 mg/Kg/die oral,2.0 ± 0.31%
same,Hematocrit,[10]; 100 mg/Kg/die oral,46.1 ± 0.6
same,Red Cells,[10]; 100 mg/Kg/die oral,"5,912.600 ± 1.434 × mm^3"
same,VES,[10]; 100 mg/Kg/die oral,0.9 ± 0.1
same,"Σ Diameter D + S, Area",[10]; [12],"2,602.0"
same,"Σ Volume D + S, Area",[10]; [12],"15,652"
same,"Σ Diameter D + S, % inhibition","[10]; both paws, 100 mg/Kg/die oral",71.08%
same,"Σ Volume D + S, % inhibition","[10]; both paws, 100 mg/Kg/die oral",47.76%
same,activity in adjuvant arthritis (in words),"[10]; oral, 45 consecutive days, 6 days per week",essentially analogous to that of ibuprofen
same,Suprarenal,"[10]; weight, 100 mg/Kg/die oral",64.5 ± 3.3 mg
same,Thymus,"[10]; weight, 100 mg/Kg/die oral",422.3 ± 19.1 mg
same,LD50,"in vivo [11]; ip, intraperitoneal route",1750 mg/kg
same,LD50,in vivo [11]; oral route,> 4000 mg/kg
same,DL50 compared with ibuprofen (in words),mice,more favorable than ibuprofen particularly by the oral route
